# Experimental data reported in the supplement of paper PMC10307832.
# Columns and labels:
# Experiment in all cases: relative viability (nuclei count vs DMSO), 5 days (fraction); higher = more cells survive
# Sunitinib + AZD7762 = compound: CCN(CC)CCNC(=O)c1c(C)[nH]c(/C=C2\C(=O)Nc3ccc(F)cc32)c1C [Sunitinib] + NC(=O)Nc1cc(-c2cccc(F)c2)sc1C(=O)N[C@H]1CCCNC1 [AZD7762] (partner 0.2 µM)
# Method in brief: (§1)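 Relative viability equals treated-well nuclei counts divided by vehicle-well nuclei counts. Counts came from 4× images of lung cancer cell lines grown in 1536-well plates for 5 days after pin-tool dosing on the day after seeding. Dosing used one drug alone or a fixed anchor-drug dose plus five library-drug doses (not always all listed) in √10 steps, and values are medians of duplicate plates.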
# Sunitinib + Decitabine = compound: CCN(CC)CCNC(=O)c1c(C)[nH]c(/C=C2\C(=O)Nc3ccc(F)cc32)c1C [Sunitinib] + Nc1ncn([C@H]2C[C@H](O)[C@@H](CO)O2)c(=O)n1 [Decitabine] (partner 2 µM)
# Method in brief: as §1
# Sunitinib + Lapatinib = compound: CCN(CC)CCNC(=O)c1c(C)[nH]c(/C=C2\C(=O)Nc3ccc(F)cc32)c1C [Sunitinib] + CS(=O)(=O)CCNCc1ccc(-c2ccc3ncnc(Nc4ccc(OCc5cccc(F)c5)c(Cl)c4)c3c2)o1 [Lapatinib] (partner 2 µM)
# Method in brief: as §1
# Sunitinib + Olaparib = compound: CCN(CC)CCNC(=O)c1c(C)[nH]c(/C=C2\C(=O)Nc3ccc(F)cc32)c1C [Sunitinib] + O=C(c1cc(Cc2n[nH]c(=O)c3ccccc23)ccc1F)N1CCN(C(=O)C2CC2)CC1 [Olaparib] (partner 8 µM)
# Method in brief: as §1
Cell Line,relative viability (Sunitinib + AZD7762; first compound 0.02 µM),relative viability (Sunitinib + AZD7762; first compound 0.06325 µM),relative viability (Sunitinib + AZD7762; first compound 0.2 µM),relative viability (Sunitinib + AZD7762; first compound 0.6325 µM),relative viability (Sunitinib + AZD7762; first compound 2 µM),relative viability (Sunitinib + Decitabine; first compound 0.02 µM),relative viability (Sunitinib + Decitabine; first compound 0.06325 µM),relative viability (Sunitinib + Decitabine; first compound 0.6325 µM),relative viability (Sunitinib + Decitabine; first compound 2 µM),relative viability (Sunitinib + Lapatinib; first compound 0.06325 µM),relative viability (Sunitinib + Lapatinib; first compound 0.2 µM),relative viability (Sunitinib + Lapatinib; first compound 0.6325 µM),relative viability (Sunitinib + Lapatinib; first compound 2 µM),relative viability (Sunitinib + Olaparib; first compound 0.02 µM),relative viability (Sunitinib + Olaparib; first compound 0.06325 µM),relative viability (Sunitinib + Olaparib; first compound 0.2 µM),relative viability (Sunitinib + Olaparib; first compound 0.6325 µM),relative viability (Sunitinib + Olaparib; first compound 2 µM),relative viability (Sunitinib + Decitabine; first compound 0.2 µM),relative viability (Sunitinib + Lapatinib; first compound 0.02 µM)
201T,0.544,0.705,0.688,0.664,0.588,0.838,0.91,0.872,0.88,1.08,1.02,1.05,1.04,0.843,0.845,0.855,0.865,0.853,–,–
A-427,0.773,0.761,0.777,0.711,0.679,0.547,0.591,0.539,0.625,1.12,1.11,1.16,1.08,0.701,0.721,0.832,0.848,0.771,0.57,1
ABC-1,0.77,0.863,0.921,0.865,0.927,1.01,0.926,1.22,0.849,1.19,1.34,1,1.19,0.728,0.919,0.868,1.06,0.966,1.07,1.18
BEN,0.774,0.755,0.815,0.661,0.66,0.698,0.766,0.62,0.715,0.754,0.675,0.673,0.618,1.02,1.03,1.14,1.08,0.956,0.7,0.651
CAL-12T,0.648,0.663,0.65,0.731,0.76,–,–,–,–,0.77,0.67,0.807,0.665,0.718,0.755,0.791,0.817,0.772,–,0.687
COR-L23,–,–,–,–,–,0.435,0.482,0.505,0.451,1.18,0.983,1.14,0.951,0.317,0.349,0.361,0.385,0.351,0.426,0.71
COR-L 105,–,–,–,–,–,0.692,0.734,0.649,0.607,0.459,0.358,0.36,0.372,0.591,0.695,0.881,0.651,0.837,0.663,0.336
Calu-6,–,–,–,–,–,–,–,–,–,1.16,1.28,1.18,1.19,0.575,0.57,0.598,0.571,0.614,–,1.02
ChaGo-K-1,0.892,0.885,0.984,0.915,0.88,0.511,0.485,0.537,0.555,–,–,–,–,0.483,0.466,0.414,0.435,0.441,0.533,–
EBC-1,–,–,–,–,–,–,–,–,–,0.198,0.224,0.215,0.202,0.758,0.689,0.727,0.726,0.739,–,0.227
